This note sets out measurements from ChEMBL document CHEMBL4392848, “Proline-based hydroxamates targeting the zinc-dependent deacetylase LpxC: Synthesis, antibacterial properties, and docking studies” (Bioorg Med Chem, 2019).

As usually defined, the IC50 is the concentration that gives 50% inhibition. Low values mean greater potency in that assay, high ones weaker potency in that assay. As a reminder, the Ki is the equilibrium dissociation constant of an inhibitor or competing ligand from its target. A low value points to higher affinity. The term MIC denotes the lowest concentration that inhibits growth of the organism. A higher MIC goes with a need for much substance.

Values after ≈ are worked out from the molar mass of the structure shown.

For one assay, the system named is Citrobacter freundii. The assay is described as follows: Antibacterial activity against Citrobacter freundii assessed as diameter of inhibition zone measured after 24 hrs by agar disc diffusion method. Format: functional.
A short description of assay [1]: Inhibition of Escherichia coli LpxC C63A mutant using UDP-3-O-[(R)-3-hydroxymyristoyl]-N-acetylglucosamine as substrate measured after 30 mins by fluorescence based microplate assay.
Assay [2] concerns Escherichia coli. The assay is described as follows: Antibacterial activity against Escherichia coli D22 assessed as diameter of inhibition zone measured after overnight incubation by agar disc diffusion method. Format: functional. On the technique in general: In agar diffusion tests the substance spreads into inoculated agar from a disc or well.
The test system of another assay is Proteus vulgaris. The assay can be described thus: Antibacterial activity against Proteus vulgaris assessed as diameter of inhibition zone measured after 24 hrs by agar disc diffusion method. It counts as functional.
A further assay relates to Klebsiella oxytoca. The assay is described as follows: Antibacterial activity against Klebsiella oxytoca assessed as diameter of inhibition zone measured after 24 hrs by agar disc diffusion method. It counts as functional.
A further assay has as its system Enterobacter cloacae. The assay is described as follows: Antibacterial activity against Enterobacter cloacae assessed as diameter of inhibition zone measured after 24 hrs by agar disc diffusion method. Format: functional.
In the next assay the test system is Pseudomonas aeruginosa. The assay can be described thus: Antibacterial activity against Pseudomonas aeruginosa assessed as diameter of inhibition zone measured after 24 hrs by agar disc diffusion method. It counts as functional.
Assay [3] deals with Escherichia coli. The assay can be described thus: Antibacterial activity against Escherichia coli BL21(DE3) measured after 20 hrs by microdilution method. Format: functional. (In general: In broth dilution the organism is exposed to a series of concentrations in liquid medium.)
The next assay relates to Proteus mirabilis. The assay is described as follows: Antibacterial activity against Proteus mirabilis assessed as diameter of inhibition zone measured after 24 hrs by agar disc diffusion method. Format: functional.
For a further assay, the system named is Klebsiella pneumoniae. The assay is described as follows: Antibacterial activity against Klebsiella pneumoniae assessed as diameter of inhibition zone measured after 24 hrs by agar disc diffusion method. It counts as functional.
Assay [4] relates to Escherichia coli. The assay is described as follows: Antibacterial activity against Escherichia coli D22 measured after 20 hrs by microdilution method. Format: functional. The note with it: D22, 20 h.
The test system of a further assay is Klebsiella aerogenes. The assay can be described thus: Antibacterial activity against Enterobacter aerogenes assessed as diameter of inhibition zone measured after 24 hrs by agar disc diffusion method. Format: functional.
Assay [5] relates to Escherichia coli. The assay is described as follows: Antibacterial activity against Escherichia coli BL21(DE3) assessed as diameter of inhibition zone measured after overnight incubation by agar disc diffusion method. Format: functional.

On to `O=C(NO)[C@@H]1C[C@H](O)CN1C(=O)c1ccc(C#Cc2ccc(CN3CCCCC3)cc2)cc1`, for which the “diameter of the inhibition zone (DIZ)” value is 9 mm in the assay with Citrobacter freundii; 19.2 mm in the assay with Escherichia coli [2]; 13 mm with Proteus vulgaris; 9 mm with Klebsiella oxytoca; below 6 mm with Enterobacter cloacae; below 6 mm in the assay on Pseudomonas aeruginosa. The “diameter of the inhibition zone (DIZ)” value in the assay on Proteus mirabilis is 11 mm; in the assay with Klebsiella pneumoniae, 9 mm; in the assay with Klebsiella aerogenes it was 10 mm; in the assay on Escherichia coli [5] it was below 6 mm. This molecule gave a 50% inhibitory concentration (IC50) in assay [1] of 54.5 µM. Moreover, the Ki in [1] stood at 7.5 µM. Also, the minimum inhibitory concentration (MIC) in the assay with Escherichia coli [3] is above 256 µM; against Escherichia coli [4], 32 µM (≈ 14.3 µg/mL).
Take `O=C(NO)[C@@H]1CCCN1Cc1ccc(C#Cc2ccc(CN3CCSCC3)cc2)cc1`: the “diameter of the inhibition zone (DIZ)” value is 13 mm with Citrobacter freundii; 17.7 mm in the assay on Escherichia coli [2]; below 6 mm with Proteus vulgaris; 11 mm with Klebsiella oxytoca; 14 mm in the assay with Enterobacter cloacae; below 6 mm in the assay on Pseudomonas aeruginosa. Further, the “diameter of the inhibition zone (DIZ)” value with Proteus mirabilis came to 8 mm; in the assay with Klebsiella pneumoniae it was 14 mm; in the assay on Klebsiella aerogenes it was 13 mm; in the assay on Escherichia coli [5], 10.7 mm. In assay [1], the IC50 was found to be 8.1 µM. In addition, in assay [1], affinity was put at a Ki of 1.1 µM. Besides, the figures for the minimal inhibitory concentration (MIC) with Escherichia coli [3] and with Escherichia coli [4] were 64 µM (≈ 27.9 µg/mL) and 1 µM (≈ 0.436 µg/mL), respectively.
For the molecule `O=C(NO)[C@@H]1CCCN1C(=O)c1ccc(C#Cc2ccc(CN3CCSCC3)cc2)cc1`, the “diameter of the inhibition zone (DIZ)” value with Citrobacter freundii is reported as 14 mm; in the assay on Escherichia coli [2] it was 18 mm; with Proteus vulgaris, 10 mm; in the assay on Klebsiella oxytoca, 11 mm; in the assay with Enterobacter cloacae it was 14 mm; in the assay on Pseudomonas aeruginosa it was below 6 mm. In addition, the “diameter of the inhibition zone (DIZ)” value is 12 mm in the assay on Proteus mirabilis, 18 mm in the assay on Klebsiella pneumoniae, 14 mm with Klebsiella aerogenes and 12.7 mm in the assay with Escherichia coli [5]. The IC50 in [1] stood at 45.2 µM. The same molecule registered a Ki in assay [1] of 6.2 µM. In addition, the MIC against Escherichia coli [3] turned out to be 128 µM (≈ 57.5 µg/mL); with Escherichia coli [4], 8 µM (≈ 3.6 µg/mL).
On to `O=C(NO)[C@@H]1C[C@H](O)CN1C(=O)c1ccc(C#Cc2ccc(CN3CCC(O)CC3)cc2)cc1`, for which the “diameter of the inhibition zone (DIZ)” value in the assay with Citrobacter freundii is below 6 mm; in the assay with Escherichia coli [2] it was 23.7 mm; in the assay on Proteus vulgaris, below 6 mm; in the assay on Klebsiella oxytoca it was below 6 mm; in the assay on Enterobacter cloacae, below 6 mm; in the assay on Pseudomonas aeruginosa, below 6 mm. Also, the “diameter of the inhibition zone (DIZ)” value is listed as 11 mm with Proteus mirabilis, below 6 mm with Klebsiella pneumoniae, 9 mm with Klebsiella aerogenes and 15.7 mm with Escherichia coli [5]. For the same molecule, 44 µM corresponded to half-maximal inhibition in assay [1] (IC50). In [1], this molecule yielded a Ki of 6.1 µM. In addition, the figures for the MIC in the assay with Escherichia coli [3] and with Escherichia coli [4] were 64 µM (≈ 29.7 µg/mL) and 4 µM (≈ 1.85 µg/mL), respectively.
As to `O=C(NO)[C@@H]1CCCN1C(=O)c1ccc(C#Cc2ccccc2)cc1`, the “diameter of the inhibition zone (DIZ)” value with Citrobacter freundii is recorded as 8 mm; in the assay on Escherichia coli [2], 12 mm; in the assay on Proteus vulgaris it was 7 mm; with Klebsiella oxytoca, 8 mm; with Enterobacter cloacae, 8 mm; in the assay with Pseudomonas aeruginosa it was below 6 mm. Also, the “diameter of the inhibition zone (DIZ)” value in the assay with Proteus mirabilis, in the assay on Klebsiella pneumoniae, in the assay with Klebsiella aerogenes and in the assay with Escherichia coli [5] was below 6 mm throughout. For the same molecule, in assay [1], the IC50 is above 200 µM. The molecule also yielded an inhibition constant Ki in assay [1] above 27.6 µM. The results for the minimum inhibitory concentration (MIC) against Escherichia coli [3] and with Escherichia coli [4] were above 256 µM and 128 µM (≈ 42.8 µg/mL), respectively.
Regarding `O=C(NO)[C@@H]1C[C@H](O)CN1C(=O)c1ccc(C#Cc2ccc(CN3CCSCC3)cc2)cc1`, the “diameter of the inhibition zone (DIZ)” value with Citrobacter freundii was 14 mm; in the assay with Escherichia coli [2] it was 21.3 mm; in the assay on Proteus vulgaris it was 9 mm; in the assay with Klebsiella oxytoca, 11 mm; in the assay with Enterobacter cloacae it was 14 mm; with Pseudomonas aeruginosa, below 6 mm. The “diameter of the inhibition zone (DIZ)” value in the assay on Proteus mirabilis was determined as 10 mm; with Klebsiella pneumoniae, 15 mm; with Klebsiella aerogenes it was 18 mm; with Escherichia coli [5], 13 mm. This molecule gave a 50% inhibitory concentration (IC50) in assay [1] of 32.8 µM. This molecule also displayed an inhibition constant (Ki) in assay [1] of 4.5 µM. Moreover, the minimal inhibitory concentration (MIC) came to 128 µM (≈ 59.6 µg/mL) against Escherichia coli [3] and 8 µM (≈ 3.72 µg/mL) in the assay with Escherichia coli [4].
Consider `O=C(NO)[C@@H]1C[C@H](O)CN1C(=O)c1ccc(C#Cc2ccccc2)cc1`, for which the “diameter of the inhibition zone (DIZ)” value was 7 mm in the assay with Citrobacter freundii; 14.3 mm with Escherichia coli [2]; 7 mm with Proteus vulgaris; 7 mm in the assay with Klebsiella oxytoca; below 6 mm in the assay with Enterobacter cloacae; below 6 mm in the assay on Pseudomonas aeruginosa. For the same molecule, the “diameter of the inhibition zone (DIZ)” value is recorded as 7 mm with Proteus mirabilis, below 6 mm in the assay with Klebsiella pneumoniae, below 6 mm in the assay with Klebsiella aerogenes and below 6 mm with Escherichia coli [5]. The molecule further came in with a 50% inhibitory concentration (IC50) in assay [1] above 200 µM. Further, in assay [1], the Ki was above 27.6 µM. In addition, the MIC in the assay with Escherichia coli [3] was above 256 µM; against Escherichia coli [4], 64 µM (≈ 22.4 µg/mL).
Consider `O=C(NO)[C@@H]1CCCN1C(=O)c1ccc(C#Cc2ccc(CN3CCCCC3)cc2)cc1`, for which the “diameter of the inhibition zone (DIZ)” value is on record as 8 mm with Citrobacter freundii; 18.7 mm in the assay on Escherichia coli [2]; 11 mm in the assay on Proteus vulgaris; 9 mm in the assay on Klebsiella oxytoca; 10 mm with Enterobacter cloacae; below 6 mm in the assay with Pseudomonas aeruginosa. Moreover, the “diameter of the inhibition zone (DIZ)” value worked out at 10 mm in the assay with Proteus mirabilis, 13 mm in the assay on Klebsiella pneumoniae, 12 mm with Klebsiella aerogenes and 7 mm with Escherichia coli [5]. In [1], this molecule returned an IC50 above 200 µM. This molecule also had a Ki in assay [1] above 27.6 µM. The MIC was above 256 µM against Escherichia coli [3] and 128 µM (≈ 55.2 µg/mL) in the assay with Escherichia coli [4].
With `O=C(NO)[C@@H]1C[C@H](O)CN1C(=O)c1ccc(C#Cc2ccc(CN3CCCC3)cc2)cc1`, the “diameter of the inhibition zone (DIZ)” value in the assay with Citrobacter freundii was below 6 mm; in the assay on Escherichia coli [2] it was 14.3 mm; in the assay on Proteus vulgaris, below 6 mm; in the assay on Klebsiella oxytoca, below 6 mm; with Enterobacter cloacae it was below 6 mm; in the assay on Pseudomonas aeruginosa, below 6 mm. The “diameter of the inhibition zone (DIZ)” value in the assay with Proteus mirabilis, in the assay with Klebsiella pneumoniae, in the assay on Klebsiella aerogenes and with Escherichia coli [5] was below 6 mm each time. Besides, in [1], the IC50 is above 200 µM. In addition, the inhibition constant Ki in [1] is above 27.6 µM. Further, the MIC was above 256 µM with Escherichia coli [3] and 64 µM (≈ 27.7 µg/mL) in the assay on Escherichia coli [4].
Consider `O=C(NO)[C@@H]1CCCN1C(=O)c1ccc(C#Cc2ccc(CN3CCS(=O)(=O)CC3)cc2)cc1`, for which the “diameter of the inhibition zone (DIZ)” value was below 6 mm in the assay on Citrobacter freundii; 17 mm in the assay with Escherichia coli [2]; 10 mm in the assay with Proteus vulgaris; below 6 mm in the assay on Klebsiella oxytoca; 10 mm in the assay on Enterobacter cloacae; below 6 mm in the assay with Pseudomonas aeruginosa. The “diameter of the inhibition zone (DIZ)” value is 9 mm in the assay on Proteus mirabilis, 11 mm in the assay with Klebsiella pneumoniae, 8 mm in the assay on Klebsiella aerogenes and 10.7 mm in the assay with Escherichia coli [5]. The 50% inhibitory concentration (IC50) in [1] came out at 17.1 µM. For the same molecule, the inhibitory constant (Ki) in [1] worked out at 2.4 µM. In addition, the MIC against Escherichia coli [3] was above 256 µM; with Escherichia coli [4] it was 64 µM (≈ 30.8 µg/mL).
